According to patent publication US20240279298A1 (BEIJING TUO JIE BIOPHARMACEUTICAL CO. LTD., priority 2021, published 2024):
Where a SMILES comes first, the peptide text is derived from it. [ ]: non-standard residue; d: D form. Aib = CC(C)(N)C(=O)O

Tests used:
[1] = Chemical stability in phosphate buffer (UPLC purity); format: physicochemical
Procedure: The compound purity was calculated by the percentage area of the main peak in the chromatograms relative to the total area of all integrated peaks, normalized by the purity of the sample on day 0 for the purity.

[2] = target: T1, human glucagon receptor (GCGR) (Homo sapiens, UniProt P47871); assay: Agonist activity assay for GCGR (cAMP HTRF); format: cell-based; conditions: normalized by the activity of the native glucagon
T1 construct: expressed in transfected cells

[3] = 4° C., phosphate buffer pH 7.4, 1 mg/mL
[4] = 25° C., phosphate buffer pH 7.4, 1 mg/mL

T1 sequence (P47871 26-477): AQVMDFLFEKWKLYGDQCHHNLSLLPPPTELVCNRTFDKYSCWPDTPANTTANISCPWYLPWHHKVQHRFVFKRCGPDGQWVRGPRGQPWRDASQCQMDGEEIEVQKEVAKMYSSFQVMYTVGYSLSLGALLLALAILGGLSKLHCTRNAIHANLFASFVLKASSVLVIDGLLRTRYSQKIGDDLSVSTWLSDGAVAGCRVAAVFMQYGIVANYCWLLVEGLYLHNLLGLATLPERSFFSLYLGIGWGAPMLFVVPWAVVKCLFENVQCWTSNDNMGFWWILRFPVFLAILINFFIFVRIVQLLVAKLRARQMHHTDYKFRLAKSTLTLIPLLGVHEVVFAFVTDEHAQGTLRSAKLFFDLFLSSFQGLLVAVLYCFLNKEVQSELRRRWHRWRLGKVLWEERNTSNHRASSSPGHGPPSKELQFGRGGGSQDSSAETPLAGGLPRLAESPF

SMILES: CC(C)C[C@H](NC(=O)[C@H](Cc1ccc(O)cc1)NC(=O)[C@H](CCCCN)NC(=O)[C@H](CO)NC(=O)[C@H](Cc1ccc(O)cc1)NC(=O)[C@H](CC(=O)O)NC(=O)[C@H](CO)NC(=O)[C@@H](NC(=O)[C@H](Cc1ccccc1)NC(=O)[C@@H](NC(=O)CNC(=O)[C@H](CCC(N)=O)NC(=O)[C@H](CO)NC(=O)[C@@H](N)Cc1c[nH]cn1)[C@@H](C)O)[C@@H](C)O)C(=O)N[C@@H](CC(=O)O)C(=O)N[C@@H](CC(C)C)C(=O)NC(C)(C)C(=O)N[C@@H](CCCNC(=N)N)C(=O)N[C@@H](C)C(=O)N[C@@H](CCC(N)=O)C(=O)N[C@@H](CCC(=O)O)C(=O)N[C@@H](Cc1ccccc1)C(=O)N[C@H](C(=O)N[C@@H](CCC(N)=O)C(=O)N[C@@H](Cc1c[nH]c2ccccc12)C(=O)N[C@@H](CC(C)C)C(=O)N[C@@H](CCC(=O)O)C(=O)N[C@@H](CO)C(=O)N[C@H](C(=O)O)[C@@H](C)O)C(C)C [Compound 40] (H-HSQGTFTSDYSKYLDL[Aib]RAQEFVQWLEST-OH)
- Chemical stability in phosphate buffers (in words) [1]: better chemical stability in phosphate buffers than that of Dasiglucagon
- Purity Day 7 [1, 3]: 99.40%
- Purity Day 14 [1, 3]: 99.87%
- Purity Day 21 [1, 3]: 100.27%
- Purity Day 28 [1, 3]: 100.59%
- Purity Day 7 [1, 4]: 99.70%
- Purity Day 14 [1, 4]: 99.54%
- Purity Day 21 [1, 4]: 97.63%
- Purity Day 28 [1, 4]: 97.90%
- Purity Day 0 ([1]; phosphate buffer pH 7.4, 1 mg/mL, day 0 (normalization)): 100.00%
- Relative activity [2]: 318%
